Laboratory results taken from ChEMBL document CHEMBL1909046, “DrugMatrix in vitro pharmacology data”.

Columns and labels:
[1] = biological target: T1, Receptor-type tyrosine-protein phosphatase C (Homo sapiens, UniProt P08575); set-up: species or system Escherichia coli;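 further: inhibition of CD45 enzyme activity measured using DiFMUP as substrate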
T1 sequence (P08575 whole entry): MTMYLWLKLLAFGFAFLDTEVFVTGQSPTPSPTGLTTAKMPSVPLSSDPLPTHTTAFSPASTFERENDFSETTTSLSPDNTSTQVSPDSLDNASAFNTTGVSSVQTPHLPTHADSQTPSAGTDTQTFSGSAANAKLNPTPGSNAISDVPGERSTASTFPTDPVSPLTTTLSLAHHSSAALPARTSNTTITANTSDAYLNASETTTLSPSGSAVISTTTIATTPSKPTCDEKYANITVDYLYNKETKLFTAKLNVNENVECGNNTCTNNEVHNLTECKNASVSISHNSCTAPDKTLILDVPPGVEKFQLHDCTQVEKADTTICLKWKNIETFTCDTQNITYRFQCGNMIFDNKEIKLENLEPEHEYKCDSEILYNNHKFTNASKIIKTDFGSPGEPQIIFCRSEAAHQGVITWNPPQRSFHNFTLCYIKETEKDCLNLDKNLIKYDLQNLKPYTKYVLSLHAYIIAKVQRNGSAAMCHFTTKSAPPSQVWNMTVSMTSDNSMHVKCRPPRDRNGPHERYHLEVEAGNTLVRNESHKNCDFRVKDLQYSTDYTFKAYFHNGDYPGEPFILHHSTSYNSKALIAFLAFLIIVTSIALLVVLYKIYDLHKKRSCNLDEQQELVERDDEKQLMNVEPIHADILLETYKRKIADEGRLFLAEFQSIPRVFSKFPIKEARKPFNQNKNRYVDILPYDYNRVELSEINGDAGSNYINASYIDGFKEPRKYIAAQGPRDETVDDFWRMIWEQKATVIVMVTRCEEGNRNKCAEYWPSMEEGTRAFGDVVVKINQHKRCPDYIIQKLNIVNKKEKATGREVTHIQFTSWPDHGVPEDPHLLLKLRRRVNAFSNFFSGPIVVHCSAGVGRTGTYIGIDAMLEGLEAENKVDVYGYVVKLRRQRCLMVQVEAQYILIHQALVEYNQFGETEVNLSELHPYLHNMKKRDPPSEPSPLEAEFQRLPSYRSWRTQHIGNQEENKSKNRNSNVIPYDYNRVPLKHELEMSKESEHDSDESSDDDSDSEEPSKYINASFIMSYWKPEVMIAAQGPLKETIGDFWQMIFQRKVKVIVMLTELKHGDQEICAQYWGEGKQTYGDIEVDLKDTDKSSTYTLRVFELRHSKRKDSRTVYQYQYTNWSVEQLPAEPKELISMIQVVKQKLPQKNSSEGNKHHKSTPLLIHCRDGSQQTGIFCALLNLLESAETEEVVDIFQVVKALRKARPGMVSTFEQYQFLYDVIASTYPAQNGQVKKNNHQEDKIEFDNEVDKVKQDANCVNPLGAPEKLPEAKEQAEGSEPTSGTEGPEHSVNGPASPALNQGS

[2] = biological target: T2, Cysteinyl leukotriene receptor 1 (Homo sapiens, UniProt Q9Y271); format: cell membranes, Membrane; settings: cho-k1
T2 sequence (Q9Y271 whole entry): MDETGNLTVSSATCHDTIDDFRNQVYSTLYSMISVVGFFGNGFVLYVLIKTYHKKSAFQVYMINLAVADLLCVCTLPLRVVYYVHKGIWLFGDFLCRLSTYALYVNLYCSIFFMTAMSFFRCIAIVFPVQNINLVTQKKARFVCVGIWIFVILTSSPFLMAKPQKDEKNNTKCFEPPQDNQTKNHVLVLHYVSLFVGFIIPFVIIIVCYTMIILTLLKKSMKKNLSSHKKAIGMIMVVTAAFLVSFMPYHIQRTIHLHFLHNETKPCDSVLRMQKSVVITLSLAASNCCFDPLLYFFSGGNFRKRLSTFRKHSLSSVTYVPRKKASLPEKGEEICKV

[3] = biological target: 5-hydroxytryptamine receptor 1B (Rattus norvegicus, UniProt P28564); format: cell membranes, Wistar, Cerebral cortex, Membrane
[4] = biological target: T3, C-C chemokine receptor type 4 (Homo sapiens, UniProt P51679); format: cell membranes, Membrane; settings: chem-1
T3 sequence (P51679 whole entry): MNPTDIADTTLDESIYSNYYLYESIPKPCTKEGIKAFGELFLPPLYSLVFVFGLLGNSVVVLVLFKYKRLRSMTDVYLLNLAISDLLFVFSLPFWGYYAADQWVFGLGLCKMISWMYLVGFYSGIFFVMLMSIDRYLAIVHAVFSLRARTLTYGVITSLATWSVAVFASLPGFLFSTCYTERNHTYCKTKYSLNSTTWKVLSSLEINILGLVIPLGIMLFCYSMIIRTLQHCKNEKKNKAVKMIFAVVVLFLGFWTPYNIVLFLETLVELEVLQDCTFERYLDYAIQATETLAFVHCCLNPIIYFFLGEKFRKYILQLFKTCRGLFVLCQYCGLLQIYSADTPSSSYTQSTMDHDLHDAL

Glycine receptor = Glycine receptor (Rattus norvegicus, UniProt P22771+P24524+P07727+P20781); format: cell membranes, Wistar, Spinal cord, Membrane
Cytochrome P450 2E1 = Cytochrome P450 2E1 (Homo sapiens, UniProt P05181); settings: bti-tn-5b1-4
[5] = biological target: T4, Muscarinic acetylcholine receptor M4 (Homo sapiens, UniProt P08173); format: cell membranes, CHO-K1, Membrane; settings: cho-k1
T4 sequence (P08173 whole entry): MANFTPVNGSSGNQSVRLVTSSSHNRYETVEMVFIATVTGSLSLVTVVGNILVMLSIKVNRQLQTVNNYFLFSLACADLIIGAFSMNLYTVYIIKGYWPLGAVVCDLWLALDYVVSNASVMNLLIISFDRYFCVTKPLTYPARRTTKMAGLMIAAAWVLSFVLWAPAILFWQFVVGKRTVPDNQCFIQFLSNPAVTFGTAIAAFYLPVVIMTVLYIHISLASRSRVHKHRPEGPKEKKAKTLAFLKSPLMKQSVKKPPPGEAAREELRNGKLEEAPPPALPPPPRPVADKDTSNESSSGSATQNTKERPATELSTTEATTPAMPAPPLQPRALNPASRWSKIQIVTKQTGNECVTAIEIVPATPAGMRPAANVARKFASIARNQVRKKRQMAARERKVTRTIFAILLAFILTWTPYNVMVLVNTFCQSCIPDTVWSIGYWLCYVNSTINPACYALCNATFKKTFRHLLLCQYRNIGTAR

Insulin receptor = Insulin receptor (Rattus norvegicus, UniProt P15127); format: cell membranes, Wistar, Liver, Membrane
Further: in other assays of this panel Not Active means under 50% inhibition at 10 µM.

Chain of Cytochrome P450 2E1 (P05181 whole entry): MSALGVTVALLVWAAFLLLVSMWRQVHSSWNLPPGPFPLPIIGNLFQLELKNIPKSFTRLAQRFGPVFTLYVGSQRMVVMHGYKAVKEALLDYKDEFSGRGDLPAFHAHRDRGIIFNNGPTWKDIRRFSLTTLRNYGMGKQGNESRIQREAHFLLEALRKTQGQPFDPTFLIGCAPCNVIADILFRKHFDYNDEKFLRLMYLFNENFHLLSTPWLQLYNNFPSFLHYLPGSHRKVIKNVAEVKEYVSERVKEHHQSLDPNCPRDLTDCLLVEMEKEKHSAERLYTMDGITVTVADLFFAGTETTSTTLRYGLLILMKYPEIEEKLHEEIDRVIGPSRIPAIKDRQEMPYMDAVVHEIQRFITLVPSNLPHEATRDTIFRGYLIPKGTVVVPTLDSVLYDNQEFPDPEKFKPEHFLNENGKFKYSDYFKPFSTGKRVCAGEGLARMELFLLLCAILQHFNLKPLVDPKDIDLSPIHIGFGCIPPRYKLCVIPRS
Chain of 5-hydroxytryptamine receptor 1B (P28564 whole entry): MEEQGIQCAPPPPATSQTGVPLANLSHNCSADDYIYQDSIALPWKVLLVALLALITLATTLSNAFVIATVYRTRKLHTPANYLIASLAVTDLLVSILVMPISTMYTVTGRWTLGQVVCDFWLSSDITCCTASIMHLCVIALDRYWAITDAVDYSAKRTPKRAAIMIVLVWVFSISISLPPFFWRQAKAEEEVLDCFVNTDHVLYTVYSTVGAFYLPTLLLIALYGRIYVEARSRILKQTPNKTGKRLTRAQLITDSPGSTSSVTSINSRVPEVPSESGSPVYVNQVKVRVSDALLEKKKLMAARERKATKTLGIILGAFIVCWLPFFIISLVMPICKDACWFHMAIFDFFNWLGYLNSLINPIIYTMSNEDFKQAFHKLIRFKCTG
Chain of Insulin receptor (P15127 27-759 limits assumed): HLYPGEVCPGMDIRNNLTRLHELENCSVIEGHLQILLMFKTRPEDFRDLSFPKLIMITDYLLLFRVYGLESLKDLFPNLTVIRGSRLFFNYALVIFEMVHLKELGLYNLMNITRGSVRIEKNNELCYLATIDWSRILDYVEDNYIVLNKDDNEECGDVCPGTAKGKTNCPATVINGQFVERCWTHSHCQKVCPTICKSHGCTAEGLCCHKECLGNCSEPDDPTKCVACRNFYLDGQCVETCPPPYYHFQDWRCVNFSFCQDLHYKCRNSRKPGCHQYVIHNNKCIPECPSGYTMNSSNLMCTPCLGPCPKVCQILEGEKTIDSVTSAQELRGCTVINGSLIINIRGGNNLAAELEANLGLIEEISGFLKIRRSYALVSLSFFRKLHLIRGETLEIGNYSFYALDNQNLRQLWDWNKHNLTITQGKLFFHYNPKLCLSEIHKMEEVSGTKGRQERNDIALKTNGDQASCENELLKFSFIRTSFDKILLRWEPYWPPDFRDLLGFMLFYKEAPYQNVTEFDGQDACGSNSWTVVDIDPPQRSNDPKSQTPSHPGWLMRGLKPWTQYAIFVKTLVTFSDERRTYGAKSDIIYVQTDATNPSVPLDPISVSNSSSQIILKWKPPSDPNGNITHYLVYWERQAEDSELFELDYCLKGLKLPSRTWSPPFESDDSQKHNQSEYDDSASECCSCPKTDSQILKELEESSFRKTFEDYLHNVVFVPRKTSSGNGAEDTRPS
Chain of Insulin receptor (P15127 764-1383 limits assumed): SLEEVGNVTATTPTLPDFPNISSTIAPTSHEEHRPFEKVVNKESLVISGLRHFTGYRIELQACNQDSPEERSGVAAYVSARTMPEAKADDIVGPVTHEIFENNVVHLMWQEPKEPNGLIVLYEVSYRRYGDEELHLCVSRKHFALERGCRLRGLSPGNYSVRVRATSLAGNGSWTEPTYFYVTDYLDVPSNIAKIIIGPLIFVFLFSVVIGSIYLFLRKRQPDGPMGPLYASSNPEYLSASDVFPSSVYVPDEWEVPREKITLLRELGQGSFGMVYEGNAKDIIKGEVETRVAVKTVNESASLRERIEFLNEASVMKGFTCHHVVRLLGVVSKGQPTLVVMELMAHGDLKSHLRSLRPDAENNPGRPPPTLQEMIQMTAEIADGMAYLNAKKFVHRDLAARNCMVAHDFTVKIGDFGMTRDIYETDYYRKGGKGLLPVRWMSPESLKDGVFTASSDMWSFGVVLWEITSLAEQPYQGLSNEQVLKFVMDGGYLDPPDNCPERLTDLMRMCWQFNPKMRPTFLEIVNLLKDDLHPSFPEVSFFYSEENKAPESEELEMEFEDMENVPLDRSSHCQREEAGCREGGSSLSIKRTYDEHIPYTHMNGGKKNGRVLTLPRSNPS

ZIRCONIUM(IV) CHLORIDE
Not Active: IC50 [1] | Ki [1] | IC50 [2] | Ki [2] | IC50 [3] | Ki [3] | IC50 [4] | Ki [4] | IC50 (Glycine receptor) | Ki (Glycine receptor) | IC50 (Cytochrome P450 2E1) | Ki (Cytochrome P450 2E1) | IC50 [5] | Ki [5] | IC50 (Insulin receptor) | Ki (Insulin receptor)
